Measurements taken from US20050222055A1 (priority 2002, published 2005).

Experiments:
[1] = biological target: 16S rRNA; assay: Bond constant by competitive luminescence anisotropy (CRP probe displacement), 16S rRNA; conditions: luminescence anisotropy competition with CRP, 20° C., HEPES pH 7.5; read-out: binding force (KD) against 16s rRNA
Procedure: (§1) A sense DNA of 16S rRNA (sequence listing 1) and an antisense DNA of 16S rRNA (sequence listing 2); a sense DNA of RRE RNA (sequence listing 3) and an antisense DNA of RRE RNA (sequence listing 4); and a sense DNA of 23S RNA (sequence listing 5) and an antisense DNA of 23S RNA (sequence listing 6) was prepared according to the present invention.
(§2) Paricularly, the two DNAs comprising sense and antisense (2.5 nanomole, respectively), 5× buffer solution (200 mM Tris-HCl, 30 mM MgCl2, 10 mM spermidine, 50 mM NaCl, pH 7.9; 20 μl), 100 mM DL-dithiotheitol (DTT; 20 μl), four nucleotide tri phosphate mixture (2.5 mM, 20 μl), T7 RNA polymerase (50 units/mL; 1 μl) and diluted water (34 μl) were mixed and cultured at 37° C. for 2 hours. And then 1 unit/ml of Rnase-free RQ1 Dnase was added to the mixture and cultured at 37° C. for 10 minutes. 100 μl of a PCI mixture solution (phenol:chloroform:[…]=25:24:1) was added to the obtained mixture, mixed at room temperature for 5 minutes and then centrifuged at 1400 rpm for 10 minutes. […]
(§3) The paromomycin bonded with tetramethylrhodamine (hereinafter referred to as “[…]”) is used as a luminescence fluorescent probe. The luminescence anisotropy is measured by establishing a thermostat of 20° C. at the Perkin-Elmer LS-50B luminescence spectroscope. The luminescence absorptance of CRP is 510 nm and its luminescence fluorescent is observed at 550 nm. […]

[2] = biological target: 23S rRNA; assay: Bond constant by competitive luminescence anisotropy (CRP probe displacement), 23S rRNA; conditions: read-out: binding force (KD) against 23S RNA; luminescence anisotropy competition with CRP, 20° C., HEPES pH 7.5; read-out: binding force (KD) against 32S RNA
Procedure: as §1, §2, §3

[3] = biological target: RRE RNA; assay: Bond constant by competitive luminescence anisotropy (CRP probe displacement), RRE RNA; conditions: luminescence anisotropy competition with CRP, 20° C., HEPES pH 7.5; read-out: binding force (KD) against RRE RNA
Procedure: as §1, §2, §3

Neomycin
Kd [1]: > 2000 nM
Kd [2]: > 2000 nM
Kd [3]: 180 nM
